For this assay, the system named is 885512-296-R-J2-PDC complex spheroid growth, % test/control. Briefly: Anticancer human tumor 885512-296-R-J2-PDC patient-derived breast carcinoma cell line growth inhibition [Asc]. The settings on record: for viability, T/C: stronger effect = lower value. A digest of the protocol:
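Complex solid-tumor spheroids incorporating human endothelial and mesenchymal stem cells received single agents or combinations over half-log dilution ranges anchored to clinical Cmax.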

Where “and” joins values, the source holds several entries; their conditions need not be identical. Identical values can stand only once.

IC50 and viability, T/C data for two compounds are collected here from PubChem BioAssay AID1963447 (Molecular Pharmacology Branch, DTP, NCI, 2024).
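Note: spheroids exposed to compounds for seven days.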
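Throughout, for viability, T/C: 100% = DMSO vehicle control wells.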

As for `Cc1nc(N2CCC3(CC2)COC(C)C3N)c(CO)nc1Sc1ccnc(N)c1Cl` (configuration not stated) + CNC(C)C(=O)NC1CN(S(=O)(=O)c2cccc(S(=O)(=O)N3CCC4CCC(C(=O)NC(c5ccccc5)c5ccccc5)N4C(=O)C(NC(=O)C(C)NC)C3)c2)CCC2CCC(C(=O)NC(c3ccccc3)c3ccccc3)N2C1=O, the IC50 by setting is: (curve of first compound, second compound 0.01 µM) 168 nM; (curve of first compound, second compound 0.0316 µM) 237 nM; (curve of first compound, second compound 0.1 µM) 201 nM; (curve of first compound, second compound 0.316 µM) 277 nM; (curve of first compound, second compound 1 µM) 270 nM. For the same compound, the viability, T/C reads like this: (second compound 0.01 µM, first compound 0.00949 µM) 90.9%; (second compound 0.01 µM, first compound 0.03 µM) 73.2%; (second compound 0.01 µM, first compound 0.0949 µM) 54%; (second compound 0.01 µM, first compound 0.3 µM) 45.3%; (second compound 0.01 µM, first compound 0.949 µM) 43.4%; (second compound 0.01 µM, first compound 3 µM) 38.7%. For the same compound, the viability, T/C by setting is: (second compound 0.0316 µM, first compound 0.00949 µM) 90.1%; (second compound 0.0316 µM, first compound 0.03 µM) 77%; (second compound 0.0316 µM, first compound 0.0949 µM) 59.3%; (second compound 0.0316 µM, first compound 0.3 µM) 47.3%; (second compound 0.0316 µM, first compound 0.949 µM) 43.1%; (second compound 0.0316 µM, first compound 3 µM) 39.5%. Also, the viability, T/C runs as follows: (second compound 0.1 µM, first compound 0.00949 µM) 102%; (second compound 0.1 µM, first compound 0.03 µM) 91.7%; (second compound 0.1 µM, first compound 0.0949 µM) 60.1%; (second compound 0.1 µM, first compound 0.3 µM) 46.3%; (second compound 0.1 µM, first compound 0.949 µM) 39.9%; (second compound 0.1 µM, first compound 3 µM) 39.9%. In addition, the viability, T/C is 120% (second compound 0.316 µM, first compound 0.00949 µM); 107% (second compound 0.316 µM, first compound 0.03 µM); 70.3% (second compound 0.316 µM, first compound 0.0949 µM); 50.4% (second compound 0.316 µM, first compound 0.3 µM); 41.8% (second compound 0.316 µM, first compound 0.949 µM); 38.9% (second compound 0.316 µM, first compound 3 µM). The viability, T/C by setting is: (second compound 1 µM, first compound 0.00949 µM) 114%; (second compound 1 µM, first compound 0.03 µM) 112%; (second compound 1 µM, first compound 0.0949 µM) 71.8%; (second compound 1 µM, first compound 0.3 µM) 52.7%; (second compound 1 µM, first compound 0.949 µM) 41.1%; (second compound 1 µM, first compound 3 µM) 38.7%.

Regarding `O=C(c1cc(Cc2n[nH]c(=O)c3ccccc23)ccc1F)N1CCN(C(=O)C2CC2)CC1`, the viability, T/C by setting is: (compound 0.0316 µM) 99.2% and 96.5% and 98%; (compound 0.1 µM) 113% and 117% and 108%; (compound 0.316 µM) 102% and 115% and 97.6%; (compound 1 µM) 98.8% and 98.3% and 107%; (compound 3.16 µM) 71.3% and 71.5% and 75.3%; (compound 10 µM) 19.2% and 17.5% and 20.8%. Moreover, the IC50 (curve of compound) was 5070 nM and 4970 nM and 5400 nM.
